IC50 data for three molecules are collected here from ChEMBL document CHEMBL1671705, “Investigations into the role of the Plasmodium falciparum SERCA (PfATP6) L263E mutation in artemisinin action and resistance” (Antimicrob Agents Chemother, 2010).

Holding throughout (type): functional, organism-based
Test [1] relates to Plasmodium falciparum. Put plainly: Antimalarial activity against Plasmodium falciparum 7G8 clone 2 assessed as inhibition of [3H]hypoxanthine incorporation.
The subject of test [2] is Plasmodium falciparum. Put plainly: Antimalarial activity against Plasmodium falciparum 7G8 clone M4 assessed as inhibition of [3H]hypoxanthine incorporation.
The subject of test [3] is Plasmodium falciparum. Put plainly: Antimalarial activity against Plasmodium falciparum 7G8 clone M3 assessed as inhibition of [3H]hypoxanthine incorporation.
Test [4] has as its system Plasmodium falciparum. Put plainly: Antimalarial activity against Plasmodium falciparum D10 clone M1 harboring pfATP6 L263 mutant assessed as inhibition of [3H]hypoxanthine incorporation.
Test [5] deals with Plasmodium falciparum. Put plainly: Antimalarial activity against Plasmodium falciparum D10 clone 1 harboring pfATP6 L263 mutant assessed as inhibition of [3H]hypoxanthine incorporation.
The subject of test [6] is Plasmodium falciparum. Description: Antimalarial activity against Plasmodium falciparum D10 clone 2 assessed as inhibition of [3H]hypoxanthine incorporation.
In test [7] the test system is Plasmodium falciparum. Put plainly: Antimalarial activity against Plasmodium falciparum D10 harboring pfATP6 263E mutant assessed as inhibition of [3H]hypoxanthine incorporation.
The subject of test [8] is Plasmodium falciparum. Description: Antimalarial activity against Plasmodium falciparum 7G8 clone M2 assessed as inhibition of [3H]hypoxanthine incorporation.
Test [9] concerns Plasmodium falciparum. Put plainly: Antimalarial activity against Plasmodium falciparum 7G8 clone M1 assessed as inhibition of [3H]hypoxanthine incorporation.
Test [10] deals with Plasmodium falciparum. Description: Antimalarial activity against Plasmodium falciparum D10 clone M2 assessed as inhibition of [3H]hypoxanthine incorporation.
The subject of test [11] is Plasmodium falciparum. Put plainly: Antimalarial activity against Plasmodium falciparum D10 clone 1 assessed as inhibition of [3H]hypoxanthine incorporation.
Test [12] concerns Plasmodium falciparum. Put plainly: Antimalarial activity against Plasmodium falciparum 7G8 clone 1 assessed as inhibition of [3H]hypoxanthine incorporation.
Test [13] has as its system Plasmodium falciparum. Description: Antimalarial activity against Plasmodium falciparum 7G8 clone 1 harboring pfATP6 L263 mutant assessed as inhibition of [3H]hypoxanthine incorporation.
In test [14] the test system is Plasmodium falciparum. Put plainly: Antimalarial activity against Plasmodium falciparum 7G8 harboring pfATP6 263E mutant assessed as inhibition of [3H]hypoxanthine incorporation.
In test [15] the test system is Plasmodium falciparum. Description: Antimalarial activity against Plasmodium falciparum D10 clone M1 assessed as inhibition of [3H]hypoxanthine incorporation.
Test [16] relates to Plasmodium falciparum. Put plainly: Antimalarial activity against Plasmodium falciparum 7G8 harboring pfATP6 L263 mutant assessed as inhibition of [3H]hypoxanthine incorporation.
The test system of test [17] is Plasmodium falciparum. Description: Antimalarial activity against Plasmodium falciparum 7G8 clone M1 harboring pfATP6 L263 mutant assessed as inhibition of [3H]hypoxanthine incorporation.
The test system of test [18] is Plasmodium falciparum. Description: Antimalarial activity against Plasmodium falciparum D10 harboring pfATP6 L263 mutant assessed as inhibition of [3H]hypoxanthine incorporation.
In test [19] the test system is Plasmodium falciparum. Put plainly: Antimalarial activity against Plasmodium falciparum D10 clone M3 assessed as inhibition of [3H]hypoxanthine incorporation.

As a reminder, the IC50 is the concentration that gives 50% inhibition. For the molecule `C[C@H]1[C@H](OC(=O)CCC(=O)O)O[C@@H]2O[C@@]3(C)CC[C@H]4[C@H](C)CC[C@@H]1[C@@]24OO3` [ARTESUNATE], the IC50 with Plasmodium falciparum [1] was found to be 0.0121 µM; with Plasmodium falciparum [2], 0.0213 µM; in the test with Plasmodium falciparum [3], 0.0124 µM; in the test with Plasmodium falciparum [4], 0.0262 µM; in the test with Plasmodium falciparum [5], 0.0236 µM; in the test with Plasmodium falciparum [6], 0.0168 µM. Further, the IC50 in the test on Plasmodium falciparum [7] turned out to be 0.0262 µM; in the test on Plasmodium falciparum [8] it was 0.0133 µM; in the test with Plasmodium falciparum [9], 0.016 µM; in the test with Plasmodium falciparum [10], 0.0277 µM; in the test on Plasmodium falciparum [11], 0.0266 µM; in the test on Plasmodium falciparum [12] it was 0.0142 µM. Further, the IC50 stood at 0.0135 µM in the test with Plasmodium falciparum [13]; 0.0149 µM with Plasmodium falciparum [14]; 0.0265 µM with Plasmodium falciparum [15]; 0.0135 µM with Plasmodium falciparum [16]; 0.0149 µM in the test on Plasmodium falciparum [17]; 0.0236 µM in the test with Plasmodium falciparum [18]. Besides, the IC50 in the test with Plasmodium falciparum [19] was 0.0243 µM.
As to `C[C@H]1[C@@H](O)O[C@@H]2O[C@@]3(C)CC[C@H]4[C@H](C)CC[C@@H]1[C@@]24OO3` [ARTENIMOL], the IC50 turned out to be 0.00276 µM in the test on Plasmodium falciparum [1]; 0.00225 µM in the test on Plasmodium falciparum [2]; 0.00241 µM with Plasmodium falciparum [3]; 0.00396 µM in the test with Plasmodium falciparum [4]; 0.00341 µM in the test with Plasmodium falciparum [5]; 0.00338 µM with Plasmodium falciparum [6]. The IC50 in the test on Plasmodium falciparum [7] came to 0.00396 µM; in the test on Plasmodium falciparum [8], 0.00219 µM; with Plasmodium falciparum [9] it was 0.00258 µM; in the test on Plasmodium falciparum [10], 0.00452 µM; in the test with Plasmodium falciparum [11], 0.00342 µM; in the test with Plasmodium falciparum [12] it was 0.00201 µM. In addition, the IC50 with Plasmodium falciparum [13] is 0.00226 µM; in the test with Plasmodium falciparum [14], 0.0013 µM; in the test with Plasmodium falciparum [15] it was 0.00379 µM; in the test with Plasmodium falciparum [16] it was 0.00226 µM; with Plasmodium falciparum [17] it was 0.00237 µM; with Plasmodium falciparum [18], 0.00341 µM. Further, the IC50 in the test on Plasmodium falciparum [19] is 0.00356 µM.
Take `C[C@@H]1CC[C@H]2[C@@H](C)C(=O)O[C@@H]3O[C@@]4(C)CC[C@@H]1[C@]32OO4` [ARTEMISININ]: the IC50 came to 0.0209 µM with Plasmodium falciparum [1]; 0.0253 µM in the test with Plasmodium falciparum [2]; 0.0205 µM with Plasmodium falciparum [3]; 0.0516 µM with Plasmodium falciparum [4]; 0.0428 µM in the test with Plasmodium falciparum [5]; 0.0343 µM in the test with Plasmodium falciparum [6]. Also, the IC50 in the test on Plasmodium falciparum [7] was determined as 0.0516 µM; with Plasmodium falciparum [8], 0.0197 µM; with Plasmodium falciparum [9] it was 0.0252 µM; in the test with Plasmodium falciparum [10], 0.0558 µM; in the test on Plasmodium falciparum [11], 0.0476 µM; with Plasmodium falciparum [12] it was 0.0206 µM. For the same molecule, the IC50 in the test on Plasmodium falciparum [13] turned out to be 0.0207 µM; in the test on Plasmodium falciparum [14], 0.0223 µM; in the test with Plasmodium falciparum [15] it was 0.0623 µM; in the test on Plasmodium falciparum [16], 0.0207 µM; in the test with Plasmodium falciparum [17] it was 0.0223 µM; with Plasmodium falciparum [18], 0.0428 µM. The IC50 in the test on Plasmodium falciparum [19] is 0.0368 µM.
